# In patent US9738634B2, “Heterocyclic amide compound and herbicide” (SYNGENTA PARTICIPATIONS AG, priority 2013, dated 2017):
# Tests used:
# Format in all cases: in vivo
# [1] = system: barnyard grass; assay: Test Example 2: weedkilling efficacy, growth period weed treatment in the submerged state; A: barnyard grass
# In short: (§1)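 Seedlings at 1-2 leaves in 4 cm-deep submerged alluvial soil received emulsion formulations on the water surface, dosed per hectare; effects were judged 3 weeks on.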
# [2] = system: bulrush; assay: Test Example 2: weedkilling efficacy, growth period weed treatment in the submerged state; B: bulrush
# In short: as §1
# [3] = system: barnyard grass; assay: Test Example 1: weedkilling efficacy, preemergent weed treatment in the submerged state; A: barnyard grass
# In short: (§2)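 Pre-emergence paddy test: weed seeds sown in submerged alluvial soil (4 cm water), 2.5-leaf rice transplanted, water-diluted emulsion applied to water surface at sowing at stated g/ha. Scored at 3 weeks, greenhouse 25–30 °C.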
# [4] = system: bulrush; assay: Test Example 1: weedkilling efficacy, preemergent weed treatment in the submerged state; B: bulrush
# In short: as §2
# [5] = system: oval-leafed pondweed; assay: Test Example 2: weedkilling efficacy, growth period weed treatment in the submerged state; C: oval-leafed pondweed
# In short: as §1
# [6] = system: oval-leafed pondweed; assay: Test Example 1: weedkilling efficacy, preemergent weed treatment in the submerged state; C: oval-leafed pondweed
# In short: as §2
# [7] = system: transplanted rice; assay: Test Example 1: preemergent weed treatment in the submerged state, effect on crop; a: transplanted rice
# In short: as §2
Structure (SMILES),A (barnyard grass) weedkilling efficacy grade ([1]; treatment dosage 320 g/ha),B (bulrush) weedkilling efficacy grade ([2]; treatment dosage 320 g/ha),"A: barnyard grass, weed kill grade ([3]; treatment dosage 320 g/ha)","B: bulrush, weed kill grade ([4]; treatment dosage 320 g/ha)",C (oval-leafed pondweed) weedkilling efficacy grade ([5]; treatment dosage 320 g/ha),"C: oval-leafed pondweed, weed kill grade ([6]; treatment dosage 320 g/ha)","a: transplanted rice, effect on crop grade ([7]; treatment dosage 320 g/ha)",A (barnyard grass) weedkilling efficacy grade ([1]; treatment dosage 252 g/ha),B (bulrush) weedkilling efficacy grade ([2]; treatment dosage 252 g/ha),"A: barnyard grass, weed kill grade ([3]; treatment dosage 252 g/ha)","B: bulrush, weed kill grade ([4]; treatment dosage 252 g/ha)",C (oval-leafed pondweed) weedkilling efficacy grade ([5]; treatment dosage 252 g/ha),"C: oval-leafed pondweed, weed kill grade ([6]; treatment dosage 252 g/ha)","a: transplanted rice, effect on crop grade ([7]; treatment dosage 252 g/ha)"
Cc1cc(NC(=O)C(C)(C)N2COCN(c3ccccc3)C2=O)nc(C(F)(F)F)c1 [A-2-57],"5 (weed kill ratio 90% or more, (practically complete withering))","5 (weed kill ratio 90% or more, (practically complete withering))","5 (weed kill ratio 90% or more, (practically complete withering))","5 (weed kill ratio 90% or more, (practically complete withering))","5 (weed kill ratio 90% or more, (practically complete withering))","5 (weed kill ratio 90% or more, (practically complete withering))",0 (weed kill ratio 5% or less (practically no effect)),,,,,,,
Cc1cc(C(F)(F)F)cc(NC(=O)C(C)(C)N2COCN(c3ccccc3)C2=O)n1 [A-2-58],"5 (weed kill ratio 90% or more, (practically complete withering))","5 (weed kill ratio 90% or more, (practically complete withering))","5 (weed kill ratio 90% or more, (practically complete withering))","5 (weed kill ratio 90% or more, (practically complete withering))","5 (weed kill ratio 90% or more, (practically complete withering))","5 (weed kill ratio 90% or more, (practically complete withering))","1 (weed kill ratio 5% or more, less than 20%)",,,,,,,
CCOc1cc(C(F)(F)F)cc(NC(=O)C(C)(C)N2COCN(c3ccccc3)C2=O)n1 [A-2-60],"5 (weed kill ratio 90% or more, (practically complete withering))","5 (weed kill ratio 90% or more, (practically complete withering))","5 (weed kill ratio 90% or more, (practically complete withering))","5 (weed kill ratio 90% or more, (practically complete withering))","5 (weed kill ratio 90% or more, (practically complete withering))","5 (weed kill ratio 90% or more, (practically complete withering))","2 (weed kill ratio 20% or more, less than 40%)",,,,,,,
CC(C)(C(=O)Nc1cncc(F)c1)N1COCN(c2ccccc2)C1=O [A-3-01],,,,,,,,"1 (weed kill ratio 5% or more, less than 20%)","5 (weed kill ratio 90% or more, (practically complete withering))","5 (weed kill ratio 90% or more, (practically complete withering))","5 (weed kill ratio 90% or more, (practically complete withering))","2 (weed kill ratio 20% or more, less than 40%)","4 (weed kill ratio 70% or more, less than 90%)","1 (weed kill ratio 5% or more, less than 20%)"
CC(C)(C(=O)Nc1cncc(Cl)c1)N1COCN(c2ccccc2)C1=O [A-3-02],,,,,,,,"2 (weed kill ratio 20% or more, less than 40%)","5 (weed kill ratio 90% or more, (practically complete withering))","5 (weed kill ratio 90% or more, (practically complete withering))","5 (weed kill ratio 90% or more, (practically complete withering))","3 (weed kill ratio 40% or more, less than 70%)","5 (weed kill ratio 90% or more, (practically complete withering))","2 (weed kill ratio 20% or more, less than 40%)"
CC(C)(C(=O)Nc1cncc(Br)c1)N1COCN(c2ccccc2)C1=O [A-3-03],,,,,,,,"3 (weed kill ratio 40% or more, less than 70%)","5 (weed kill ratio 90% or more, (practically complete withering))","5 (weed kill ratio 90% or more, (practically complete withering))","5 (weed kill ratio 90% or more, (practically complete withering))","4 (weed kill ratio 70% or more, less than 90%)","5 (weed kill ratio 90% or more, (practically complete withering))",0 (weed kill ratio 5% or less (practically no effect))
CC(C)(C(=O)Nc1cc(Br)cnc1F)N1COCN(c2ccccc2)C1=O [A-3-04],,,,,,,,"5 (weed kill ratio 90% or more, (practically complete withering))","5 (weed kill ratio 90% or more, (practically complete withering))","5 (weed kill ratio 90% or more, (practically complete withering))","5 (weed kill ratio 90% or more, (practically complete withering))","3 (weed kill ratio 40% or more, less than 70%)","5 (weed kill ratio 90% or more, (practically complete withering))","3 (weed kill ratio 40% or more, less than 70%)"
CC(C)(C(=O)Nc1cnc(Cl)c(Cl)c1)N1COCN(c2ccccc2)C1=O [A-3-05],"4 (weed kill ratio 70% or more, less than 90%)","5 (weed kill ratio 90% or more, (practically complete withering))","3 (weed kill ratio 40% or more, less than 70%)","5 (weed kill ratio 90% or more, (practically complete withering))","5 (weed kill ratio 90% or more, (practically complete withering))","5 (weed kill ratio 90% or more, (practically complete withering))",0 (weed kill ratio 5% or less (practically no effect)),,,,,,,
CC(C)(C(=O)Nc1cc(Cl)cnc1Cl)N1COCN(c2ccccc2)C1=O [A-3-06],,,,,,,,"3 (weed kill ratio 40% or more, less than 70%)","4 (weed kill ratio 70% or more, less than 90%)","5 (weed kill ratio 90% or more, (practically complete withering))","5 (weed kill ratio 90% or more, (practically complete withering))","2 (weed kill ratio 20% or more, less than 40%)","4 (weed kill ratio 70% or more, less than 90%)","1 (weed kill ratio 5% or more, less than 20%)"
CC(C)(C(=O)Nc1cc(Br)cnc1Cl)N1COCN(c2ccccc2)C1=O [A-3-07],,,,,,,,"4 (weed kill ratio 70% or more, less than 90%)","5 (weed kill ratio 90% or more, (practically complete withering))","5 (weed kill ratio 90% or more, (practically complete withering))","5 (weed kill ratio 90% or more, (practically complete withering))","1 (weed kill ratio 5% or more, less than 20%)","4 (weed kill ratio 70% or more, less than 90%)",0 (weed kill ratio 5% or less (practically no effect))
CC(C)(C(=O)Nc1cc(Cl)cnc1Br)N1COCN(c2ccccc2)C1=O [A-3-08],,,,,,,,"2 (weed kill ratio 20% or more, less than 40%)","3 (weed kill ratio 40% or more, less than 70%)","5 (weed kill ratio 90% or more, (practically complete withering))","5 (weed kill ratio 90% or more, (practically complete withering))","2 (weed kill ratio 20% or more, less than 40%)","4 (weed kill ratio 70% or more, less than 90%)",0 (weed kill ratio 5% or less (practically no effect))
CC(C)(C(=O)Nc1cncc(C(F)(F)F)c1)N1COCN(c2ccccc2)C1=O [A-3-10],,,,,,,,"3 (weed kill ratio 40% or more, less than 70%)","5 (weed kill ratio 90% or more, (practically complete withering))","5 (weed kill ratio 90% or more, (practically complete withering))","5 (weed kill ratio 90% or more, (practically complete withering))","4 (weed kill ratio 70% or more, less than 90%)","5 (weed kill ratio 90% or more, (practically complete withering))","1 (weed kill ratio 5% or more, less than 20%)"
CC(C)(C(=O)Nc1ccnc(Cl)c1)N1COCN(c2ccccc2)C1=O [A-4-02],,,,,,,,"2 (weed kill ratio 20% or more, less than 40%)","5 (weed kill ratio 90% or more, (practically complete withering))","5 (weed kill ratio 90% or more, (practically complete withering))","5 (weed kill ratio 90% or more, (practically complete withering))","4 (weed kill ratio 70% or more, less than 90%)","5 (weed kill ratio 90% or more, (practically complete withering))","1 (weed kill ratio 5% or more, less than 20%)"
